pIC50: −log10 of the molar value. “Also recorded” adds a separate entry of the source.
Columns and labels:
[1] = test system: MRC-9 human non-cancer fibroblast cells; assay: MTT assay, MRC-9 non-cancer fibroblasts; type: cell-based; details: treated for 48 h
Protocol: (§1) The human prostate cancer cell lines PC-3 [docetaxel-resistant, androgen-independent, AR-FL(-), AR-V7(-)], 22Rv1 [docetaxel-sensitive, androgen-independent, AR-FL(+), AR-V7(+)], and the human non-cancer fibroblast cell line MRC-9 were used. PC-3 and 22Rv1 were purchased from ATCC (Manassas, VA, USA). MRC-9 cells were kindly donated by Prof. Dr. med. Sonja Loges (University Medical Center Hamburg-Eppendorf, Hamburg, Germany). Cells were cultured according to the manufacturers’ protocol in 10% FBS/RPMI (PC-3 and 22Rv1) or 10% FBS/DMEM (MRC-9) medium.
(§2) In vitro drug sensitivity MTT assay was performed as previously described. In total, 6000 cells/well were seeded in 96-well plates, incubated overnight, and treated with the investigated drugs for 48 h.

[2] = test system: CDK1–CDK9 mRNA in PC-3 cells; assay: qPCR of CDK1-CDK9 mRNA expression; type: cell-based, human; details: 24 h, normalized to GAPDH (Figure 5)
Protocol: The CDKs gene expression was measured using qPCR technique. PC-3 cells were seeded in Petri dishes (1 × 10^6 cells per ø 6 cm dish in 5 mL) in standard culture media, incubated overnight and treated with the investigated drugs in the fresh culture media for 24 h. Cells were harvested using the cell scraper, washed with PBS and homogenized using QIAshredder (QIAGEN, Hilden, Germany). The total RNA was isolated using PureLink® RNA Mini Kit (Invitrogen, Carlsbad, CA, USA) and the on-column DNA digestion using PureLink™ DNase (Invitrogen). Correspondent RNA (2 µg in 30 µL) and was transcribed into cDNA using Maxima First Strand cDNA Synthesis Kit for RT-qPCR (Thermo Scientific, Vilnius, Lithuania). The following qPCR was performed using 2X KAPA SYBR FAST qPCR Master Mix Optimized for Roche LightCycler 480 (KAPA biosystems, Worburn, MA, USA) according to the manufacturer’s protocol. In total, 20 ng of the template cDNA and 2 pmol of primers were used for each reaction. The PCR conditions were 30 s at 95 °C, followed by 40 cycles of 15 s at 95 °C, 5 s at melting temperature (Tm), and 26 s at 72 °C (fluorescence measurement). Melting curve analysis was performed under the following conditions directly after the PCR run: 10 s at 95 °C, 60 s at 65 °C and 1 s at 97 °C. Relative gene expression was calculated using the 2^-∆∆CT method. The expression of CDKs was normalized to GAPDH gene expression. The analysis was performed using primers, purchased from Eurofins MWG-Biotech AG (Ebersberg, Germany).
Due to the significant alterations of the cell cycle, we further investigated the effects of the isolated compounds on the cyclin-dependent kinases (CDKs). These proteins are known to control proliferation as well as some apoptotic processes. We have examined the expression of mRNAs corresponding to the nine most studied CDKs known to be involved in the cell cycle progression of cancer cells, namely, CDK1–CDK9. […] Remarkably, these effects correlated well with the cytotoxicity of the isolated compounds.
Figure 5 Expression of mRNA correspondent to CDK1-9 in PC-3 cells treated with the isolated compounds 1–8 for 24 h. The target gene expression was normalized to GAPDH gene expression. * p ≤ 0.05 (Student’s t-test).

[3] = test system: 22Rv1 human prostate cancer cells; assay: MTT assay, 22Rv1 cells; type: cell-based; details: treated for 48 h
Protocol: as §1, §2

[4] = test system: PC-3 human prostate cancer cells; assay: MTT assay, PC-3 cells; type: cell-based; details: for pIC50: PC-3 cells, MTT, treated for 48 h; for Selectivity index (MRC-9 vs. PC-3): [IC50 in MRC-9 cells] / [IC50 in PC-3 cells]
Protocol: as §1, §2

PC-3 cells [5] = assay: DNA fragmentation / apoptosis induction by flow cytometry (PI staining, sub-G1); type: cell-based, human; details: PC-3 cells, 0.5, 1, 5 and 10 µM, 24 h (Figure 3)
Protocol: (§3) The effect of the compounds on apoptosis induction and cell cycle progression was analyzed by flow cytometry technique using PI staining as reported before. Cells (0.2 × 10^6 cells/well) were seeded in six-well plates, incubated overnight, and treated with the investigated drugs for 48 h. The cells were further harvested, fixed with 70% EtOH/H2O, stained with propidium iodide (PI), and analyzed using a FACS Calibur machine (BD Bioscience, San Jose, CA, USA). The results were quantified using BD Bioscience Cell Quest Pro software (v.5.2.1., BD Bioscience).
To investigate the mechanism of action contributing to the cytotoxicity in PC-3 cells, we investigated the effects on DNA fragmentation, a well-established marker of cellular apoptosis. Therefore, we evaluated the effects of the isolated compounds at four different concentrations of 0.5 µM, 1 µM, 5 µM, and 10 µM by flow cytometry (Figure 3). […] Therefore, prenylated dimeric flavonoid 8 may either reveal a non-apoptotic character of cell death or a predominantly antiproliferative rather than cytotoxic effect.
Figure 3 Effect of natural compounds on DNA fragmentation of PC-3 cells. Cells were treated with the investigated compounds for 24 h. The effects were analyzed by flow cytometry. Cells detected as sub-G1 population were considered to be apoptotic. Cisplatin (Cis) was used as a positive control. * p ≤ 0.05 (Student’s t-test).

PC-3 cells [6] = assay: Cell cycle progression by flow cytometry (PI staining); type: cell-based, human; details: 24 h (Figure 4)
Protocol: as §3
Next, we examined the effects of the isolated compounds on the cell cycle progression of PC-3 cells. For compounds 1–3, a significant accumulation of the cells in S-phase as well as slight accumulation in G2/M-phase was observed (Figure 4).
Figure 4 Treatment effects on the progression of the cell cycle of PC-3 cells. Cells were treated with the investigated compounds for 24 h. The effects were analyzed by flow cytometry. Cisplatin was used as a positive control. * p ≤ 0.05 (Student’s t-test).

[7] = Homo sapiens, MRC9, MRC-9 cells

pIC50 ([3]; Homo sapiens) | pIC50 ([4]; Homo sapiens) | SMILES | pIC50 [1, 7] | Effect on expression of mRNA corresponding to CDK1-9 [2] | Selectivity index (MRC-9 vs. PC-3) [4] | Apoptosis induction (DNA fragmentation, sub-G1 population) (PC-3 cells [5]) | Effect on cell cycle progression (PC-3 cells [6]) | pIC50 ([1]; MRC-9 cells) | pIC50 [3] | pIC50 [4]
4.70 | 5.17 | CC(C)=CCC/C(C)=C/Cc1c(O)c(O)cc2c3c(oc12)-c1ccc(O)cc1OC3 [Compound 1] | 4.31 | inhibitory effects | 7.21 |  |  |  |  | 
5.20 | 5.68 | CC(C)=CCC/C(C)=C/Cc1c(O)c(O)cc2c1O[C@H]1c3cc(CC=C(C)C)c(O)cc3OC[C@@H]21 [Compound 3] | 4.77 | inhibitory effects; also recorded: strongest inhibitory effect | 7.99 | most pronounced apoptosis-inducing effect |  |  |  | 
4.45 | 4.82 | CC(C)=CCC[C@@]1(C)C=Cc2c(c(O)cc3c2O[C@H]2c4ccc(O)cc4OC[C@@H]32)O1 [Compound 5] | 4.61 |  | 1.62 |  |  |  |  | 
4.76 | 5.03 | CC(C)=CCC/C(C)=C/Cc1c(O)c(C(=O)c2c(-c3ccc(O)cc3O)oc3c(C/C=C(\C)CCC=C(C)C)c(O)c(O)cc23)cc2c1O[C@H]1c3ccc(O)cc3OC[C@@H]21 [Compound 8, Lespebicolin A] | 4.62 | did not exhibit any pronounced effect on CDKs mRNA expression | 2.59 | apart from structurally different lespebicolin A (8) | could not induce an S-phase cell cycle arrest |  |  | 
4.53 | 4.79 | CC(C)=CCC[C@]1(C)C=Cc2c(c(O)cc3c2O[C@H]2c4ccc(O)cc4OC[C@@H]32)O1 [Compound 4] | 4.57 |  | 1.66 |  |  |  |  | 
4.33 | 4.72 | CC(C)=CCC/C(C)=C/Cc1c(O)c(O)cc(C(=O)C(=O)c2ccc(O)cc2O)c1O [Compound 6] | < 4.30 |  | >2.6 |  |  |  |  | 
4.86 | 5.28 | CC(C)=CCC/C(C)=C/Cc1c(O)c(O)cc2c1O[C@H]1c3ccc(O)cc3OC[C@@H]21 [Compound 2] | 4.43 | inhibitory effects; also recorded: fairly active | 7.17 |  |  |  |  | 
4.52 | 4.83 | COc1cc2c(c(C/C=C(\C)CCC=C(C)C)c1O)O[C@H]1c3ccc(O)cc3OC[C@@H]21 [Compound 7, (6aR,11aR)-8-O-methyl-6a,11a-dihydrolespedezol A2] | 4.61 | did not exhibit this activity | 1.64 |  | G1-phase arrest instead of S-phase arrest |  |  | 
 |  | N.N.[Cl][Pt][Cl] [Cisplatin, reference compound] |  |  | 0.72 |  |  | 4.82 | 5.34 | 4.68

— PMC7175281, “Polyphenolic Compounds from Lespedeza Bicolor Root Bark Inhibit Progression of Human Prostate Cancer Cells via Induction of Apoptosis and Cell Cycle Arrest” (Biomolecules, 2020)
